Results on five compounds are retold here after PMC8159385, “Chemical synthesis of human syndecan-4 glycopeptide bearing O-, N-sulfation and multiple aspartic acids for probing impacts of the glycan chain and the core peptide on biological functions” (Chemical Science, 2020).

Each structure is given as a SMILES string. Like-named read-outs stand apart in the source and are kept apart here. Residues, ends and D or L forms follow the SMILES beside them. *: point of attachment. X1 = O=C(O)[C@H]1O[C@@H](O[C@H]2[C@@H](O)[C@@H](CO)O[C@@H](O[C@H]3[C@@H](O)[C@@H](CO)O[C@@H](O[C@@H]4CO[C@@H](*)[C@H](O)[C@H]4O)[C@@H]3O)[C@@H]2O)[C@H](O)[C@@H](O)[C@@H]1O[C@H]1O[C@H](COS(=O)(=O)O)[C@@H](O)[C@H](O)[C@H]1NS(=O)(=O)O; Biotin = O=C1N[C@H]2[C@H](CS[C@H]2CCCCC(=O)*)N1; Ahx = NCCCCCC(=O)O

One experiment has as its target T1, heparanase (Homo sapiens, UniProt Q9Y251).
T1 sequence (Q9Y251 158-543 limits assumed): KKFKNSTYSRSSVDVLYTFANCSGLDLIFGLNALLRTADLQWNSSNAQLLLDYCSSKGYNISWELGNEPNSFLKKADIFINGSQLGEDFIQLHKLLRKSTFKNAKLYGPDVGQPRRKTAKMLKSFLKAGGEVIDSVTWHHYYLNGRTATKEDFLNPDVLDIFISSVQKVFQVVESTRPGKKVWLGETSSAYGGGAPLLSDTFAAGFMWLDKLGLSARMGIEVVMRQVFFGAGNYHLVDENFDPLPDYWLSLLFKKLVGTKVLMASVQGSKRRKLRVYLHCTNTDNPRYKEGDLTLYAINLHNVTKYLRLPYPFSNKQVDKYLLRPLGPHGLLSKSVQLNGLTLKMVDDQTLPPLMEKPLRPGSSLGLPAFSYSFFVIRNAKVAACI
T1 sequence (Q9Y251 36-109 limits assumed): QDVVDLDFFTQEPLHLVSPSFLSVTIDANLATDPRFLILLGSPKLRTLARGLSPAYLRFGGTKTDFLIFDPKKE
As to the kind of experiment: Fondaparinux colorimetric heparanase assay. It counts as biochemical. The note with it: for inhibition at 3.3 µM: 3.3 μM compound; for inhibition at 3.3 µM / inhibition at 10 µM / inhibition at 33 µM: heparanase 5 nM; for inhibition at 10 µM: 10 μM compound; for inhibition at 33 µM: 33 μM compound. The source says:
With the synthetic glycopeptide and the corresponding peptide and glycan in hand, we began to probe the impacts of glycan and peptide on biological functions of the glycopeptide. The endoglycosidase heparanase is an important enzyme for HS metabolism, which can cleave HS polysaccharide chains at the cell surface or in the extracellular matrix.[63] Heparanase activities are important for a variety of biological processes, including tumor metastasis and cell proliferation.[64] […]
General procedure for heparanase assays
Fondaparinux colorimetric heparanase assays were carried out in 96 well microplates (NEST Scientific 96 Well Cell Culture Plate, 701002) pre-treated with a solution of 4% BSA in phosphate-buffered saline containing 0.05% Tween 20 (PBST) for 2 h at 37 °C. A ssay solutions (100 ul) contained sodium acetate buffer (40 mM, pH 5.0) and fondaparinux ([…], MedChemExpress), heparanase (5 nM) and varying concentrations of compounds of interests or heparin. The mixture was kept at 37 °C for 20 h, which was followed by addition of a solution of WST-1 (100 μL of 1.69 mM WST-1 in 0.1 M NaOH) and incubation at 60 °C for 1 h after which the absorbance at 584 nm was measured (Fluostar Optima plate reader, BMG Labtech). […]

Another experiment addresses CCL-13 (Homo sapiens, UniProt Q99616). As to the kind of experiment: BLI binding assay, biotinylated compounds on streptavidin biosensors, CCL-13. Also noted: key to K D CCL-13: Inactive denotes a KD value greater than 400 μM. The note with it: for Kd: Table 2, read-out: K D CCL-13. On the procedure:
(§1) Cytokines and growth factors are important proteins modulating cellular functions, many of which are known to interact with HS.[1,8,34,67] To probe the impacts of the glycan and the core peptide, the binding of glycopeptide 1, pentasaccharide 30, and peptide 31 to several representative growth factors and cytokines including fibroblast growth factor 2 (FGF-2), interleukin 8 (IL-8) and chemokine (C–C motif ligand 13 (CCL-13)) respectively was tested using the biolayer interferometry (BLI). The biotinylated glycopeptide 1, pentasaccharide 30, and peptide 31 were immobilized on streptavidin coated biosensors, and their dissociation constants (KD) with the proteins were measured (Table 2). […]
(§2) General procedure for biotinylation
(§3) To a solution of free amine compounds in DMSO/H 2O (1/1, 0.5 ml) was added […]
(§4) The reaction was stirred at room temperature for 5 hours. Then the mixture was loaded onto a G-15 Sephadex column for purification. […] General procedure for BLI binding assay
(§5) The binding assay was performed on the Octet K2 System (Pall ForteBio). The biotinylated […]
(§6) compounds were absorbed to streptavidin (SA) sensor for 2 min. The sensor was then balanced in the assay buffer (PBS containing 0.005% P20) and dipped into protein solution in assay buffer at different concentration. After 5 min of association, the sensor was brought back to the previous assay
(Biolayer interferometry detects binding as a change in optical thickness at a sensor tip.)

A further experiment deals with T2, IL-8 (Homo sapiens, UniProt P10145).
T2 sequence (P10145 21-99): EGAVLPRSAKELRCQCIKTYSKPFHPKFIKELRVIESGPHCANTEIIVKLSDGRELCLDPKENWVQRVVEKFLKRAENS
As to the kind of experiment: BLI binding assay, biotinylated compounds on streptavidin biosensors, IL-8. The note with it: Table 2, read-out: K D IL-8. As for the experimental part:
as §1, §2, §3, §4, §5, §6

In a further experiment the target is FGF-2 (Homo sapiens, UniProt P09038). As to the kind of experiment: BLI binding assay, biotinylated compounds on streptavidin biosensors, FGF-2. As for the experimental part:
as §1, §2
To a solution of free amine compounds in DMSO/H 2O (1/1, 0.5 ml) was added sulfo-NHS-LC-Biotin (5 equiv) and DIPEA (pH ~ 8.5). The reaction was stirred at room temperature for 5 hours. Then the mixture was loaded onto a G-15 Sephadex column for purification. […] General procedure for BLI binding assay
as §5
compounds were absorbed to streptavidin (SA) sensor for 2 min. The sensor was then balanced in the assay buffer (PBS containing 0.005% P20) and dipped into protein solution in assay buffer at different concentration. After 5 min of association, the sensor was brought back to the previous assay buffer for a 5 min dissociation step. At the end of the assay, the sensor was regenerated in 2 M NaCl to remove the bound protein. Each measurement was repeated 3 times on the same sensor. The control assay was done with another sensor loaded with saturated biotin solution. […]
MD trajectories were generated from the protein system without any ligand to relax the structure and minimize the pocket restrictions caused by the present ligand in the structure.
The geometries of compounds 2, 28 and 29 were optimized using the Gaussian 16 program package. The optimizations were performed using the AM1 method.1 The obtained Mulliken charges were used with the antechamber module of Amber 16 in the generation of parameters. The systems were prepared using the Leap module of AmberTools162 under the AMBER ff14SB and GAFF force fields. Each enzyme complex was solvated in a 14 Å cube of TIP4P-Ew water beyond the solute and 100 mM sodium chloride. The systems were relaxed under NVT conditions over six minimization procedures with decreasing restraints on the protein of 500.0, 200.0, 20.0, 10.0, 5.0 kcal/(mol Å2) to no restraints. The systems were then heated to 300 K over 30 ps. Atomistic molecular dynamics simulations were performed for 30 ns at 300 K and 1 atm using AMBER 16. The SHAKE algorithm constrained bonds involving hydrogen. 3 The trajectories were produced using Langevin dynamics and the pressure of the system was regulated with isotropic position scaling. Long -range electrostatic effects were modeled using the particle-mesh Ewald method with a 10 Å cutoff.
The produced trajectories were analyzed using AMBER 16 and visualized with MOE and the UCSF Chimera package. Free energy of binding was calculated for every picosecond using the Poisson Boltzmann model form the MMPBSA.py module of AmberTools and AMBER 16. The relative free energy trends between models were compared so solute entropy was neglected.
Following the general procedure for solid-phase peptide synthesis, peptide 29 was obtained in 52% […]
RP-HPLC retention time, tR = 24.4 min.
Following the general procedure for biotinylation, peptide 31 was obtained from 12-mer peptide 29 in 56% yield. The overall yield based on resin loading is 29%. HRMS: C65H103N15O28S [M - 2H]2- […]
Figure S1: Binding of synthetic compounds 1, 31 and 30 to protein FGF2 as measured by BLI (a-c respectively). The biotinylated compounds (2 μM ) were immobilized on streptavidin coated biosensors, and FGF2 was captured on biosensors with six concentrations at 291 nM, 145 nM, […], 39 nM, 20 nM, 10 nM. Fitting curves were shown in red lines. […]

The mark [1] stands for this setting: BLI, Table 2, read-out: K D FGF2.
[2] abbreviates: Table S2, KD values from BLI measurements, read-out: Experimental KD.

Sequence of CCL-13 (Q99616 17-98, species assumed): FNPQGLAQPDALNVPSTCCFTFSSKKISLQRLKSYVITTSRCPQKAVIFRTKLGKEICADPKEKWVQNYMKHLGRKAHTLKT
Sequence of FGF-2 (P09038 143-288, species assumed): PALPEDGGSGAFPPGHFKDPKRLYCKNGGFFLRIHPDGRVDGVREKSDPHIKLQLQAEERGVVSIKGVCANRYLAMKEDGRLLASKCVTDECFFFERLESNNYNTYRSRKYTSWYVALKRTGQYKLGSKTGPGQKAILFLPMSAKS

`O=C(CCCCC1SCC2NC(=O)NC21)NCCCCCC(=O)NCCCOC1OCC(OC2OC(CO)C(O)C(OC3OC(CO)C(O)C(OC4OC(C(=O)O)C(OC5OC(COS(=O)(=O)O)C(O)C(O)C5NS(=O)(=O)O)C(O)C4O)C3O)C2O)C(O)C1O` (stereo not drawn) [Compound 30]: at heparanase, the inhibition at 3.3 µM was under 0%, the inhibition at 10 µM amounted to 32% and 33 µM produced 61% inhibition. Besides, the “KD with CCL-13” value at CCL-13 is recorded as “did not exhibit much binding”. Besides, the “K D CCL-13” value on CCL-13 (Table 2) is “Inactive”. For the same compound, the Kd at IL-8 worked out at 39 nM. On FGF-2 (setting [1]), the Kd came to 14.5 nM.

Regarding `NCCCO[C@@H]1OC[C@@H](O[C@@H]2O[C@H](CO)[C@H](O)[C@H](O[C@@H]3O[C@H](CO)[C@H](O)[C@H](O[C@@H]4O[C@H](C(=O)O)[C@@H](O[C@H]5O[C@H](COS(=O)(=O)O)[C@@H](O)[C@H](O)[C@H]5NS(=O)(=O)O)[C@H](O)[C@H]4O)[C@H]3O)[C@H]2O)[C@H](O)[C@H]1O` [Compound 28], the Kd on FGF-2 (setting [2]) is 14.5 nM.

Regarding `CC(C)C[C@H](NC(=O)[C@H](CC(=O)O)NC(=O)CNC(=O)[C@H](CO)NC(=O)CNC(=O)[C@H](CO)NC(=O)[C@@H](N)CC(C)C)C(=O)N[C@@H](CC(=O)O)C(=O)N[C@@H](CC(=O)O)C(=O)N[C@@H](CC(C)C)C(=O)N[C@@H](CCC(=O)O)C(=O)N[C@@H](CC(=O)O)C(=O)O` [Compound 29] (H-LSGSGDLDDLED-OH), the Kd on FGF-2 (setting [2]) worked out at 17 nM.

Turning to `CC(C)C[C@H](NC(=O)CCCCCNC(=O)CCCC[C@@H]1SC[C@@H]2NC(=O)N[C@@H]21)C(=O)N[C@@H](CO)C(=O)NCC(=O)N[C@@H](CO)C(=O)NCC(=O)N[C@@H](CC(=O)O)C(=O)N[C@@H](CC(C)C)C(=O)N[C@@H](CC(=O)O)C(=O)N[C@@H](CC(=O)O)C(=O)N[C@@H](CC(C)C)C(=O)N[C@@H](CCC(=O)O)C(=O)N[C@@H](CC(=O)O)C(=O)O` [Compound 31] ({Biotin-Ahx}-LSGSGDLDDLED-OH; N-terminus and C-terminus assumed), at heparanase, the inhibition at 3.3 µM was under 0%, the inhibition at 10 µM was under 0%, the inhibition at 33 µM is under 0% and the “inhibition of heparanase at concentrations up to 100 μM” value was “neither peptide 31 nor glycopeptide 1 were able to inhibit heparanase”. The Kd at CCL-13 amounted to 92 nM. For the same compound, the Kd at IL-8 came to 75 nM. Moreover, the Kd at FGF-2 (setting [1]) was determined as 17 nM.

Regarding `CC(C)C[C@H](NC(=O)CCCCCNC(=O)CCCC[C@@H]1SC[C@@H]2NC(=O)N[C@@H]21)C(=O)N[C@@H](CO)C(=O)NCC(=O)N[C@@H](CO[C@@H]1OC[C@@H](O[C@@H]2O[C@H](CO)[C@H](O)[C@H](O[C@@H]3O[C@H](CO)[C@H](O)[C@H](O[C@@H]4O[C@H](C(=O)O)[C@@H](O[C@H]5O[C@H](COS(=O)(=O)O)[C@@H](O)[C@H](O)[C@H]5NS(=O)(=O)O)[C@H](O)[C@H]4O)[C@H]3O)[C@H]2O)[C@H](O)[C@H]1O)C(=O)NCC(=O)N[C@@H](CC(=O)O)C(=O)N[C@@H](CC(C)C)C(=O)N[C@@H](CC(=O)O)C(=O)N[C@@H](CC(=O)O)C(=O)N[C@@H](CC(C)C)C(=O)N[C@@H](CCC(=O)O)C(=O)N[C@@H](CC(=O)O)C(=O)O` [Compound 1] ({Biotin-Ahx}-LSGS(X1)GDLDDLED-OH), on heparanase, the inhibition at 3.3 µM is under 0%, the inhibition at 10 µM was under 0%, the inhibition at 33 µM was under 0% and the “inhibition of heparanase at concentrations up to 100 μM” value was “neither peptide 31 nor glycopeptide 1 were able to inhibit heparanase”. Moreover, at CCL-13, the Kd was 498 nM. Also, on IL-8, the Kd amounted to 28 nM. In addition, the Kd on FGF-2 (setting [1]) worked out at 5 nM. Further, the “FGF-2 binding, fold higher than pentasaccharide 30 and peptide 31” value at FGF-2 (ratio of KD values) is listed as “about 3 fold”.

What is called inhibition is the change of the read-out against control, counted positive when it falls.
